Here are results for 1 compound from paper PMC11606603, “The membrane domains of mammalian adenylyl cyclases are lipid receptors” (eLife, 2024).

The target in the assay is T1, HEK-mAC4 (Homo sapiens, UniProt Q8NFM4).
T1 construct: Human mAC genes were from GenScript and fitted with a C-terminal FLAG-tag; FLAG (C); expressed in transfected cells; host or cells: HEK293, permanently transfected
T1 sequence (Q8NFM4 1-1077): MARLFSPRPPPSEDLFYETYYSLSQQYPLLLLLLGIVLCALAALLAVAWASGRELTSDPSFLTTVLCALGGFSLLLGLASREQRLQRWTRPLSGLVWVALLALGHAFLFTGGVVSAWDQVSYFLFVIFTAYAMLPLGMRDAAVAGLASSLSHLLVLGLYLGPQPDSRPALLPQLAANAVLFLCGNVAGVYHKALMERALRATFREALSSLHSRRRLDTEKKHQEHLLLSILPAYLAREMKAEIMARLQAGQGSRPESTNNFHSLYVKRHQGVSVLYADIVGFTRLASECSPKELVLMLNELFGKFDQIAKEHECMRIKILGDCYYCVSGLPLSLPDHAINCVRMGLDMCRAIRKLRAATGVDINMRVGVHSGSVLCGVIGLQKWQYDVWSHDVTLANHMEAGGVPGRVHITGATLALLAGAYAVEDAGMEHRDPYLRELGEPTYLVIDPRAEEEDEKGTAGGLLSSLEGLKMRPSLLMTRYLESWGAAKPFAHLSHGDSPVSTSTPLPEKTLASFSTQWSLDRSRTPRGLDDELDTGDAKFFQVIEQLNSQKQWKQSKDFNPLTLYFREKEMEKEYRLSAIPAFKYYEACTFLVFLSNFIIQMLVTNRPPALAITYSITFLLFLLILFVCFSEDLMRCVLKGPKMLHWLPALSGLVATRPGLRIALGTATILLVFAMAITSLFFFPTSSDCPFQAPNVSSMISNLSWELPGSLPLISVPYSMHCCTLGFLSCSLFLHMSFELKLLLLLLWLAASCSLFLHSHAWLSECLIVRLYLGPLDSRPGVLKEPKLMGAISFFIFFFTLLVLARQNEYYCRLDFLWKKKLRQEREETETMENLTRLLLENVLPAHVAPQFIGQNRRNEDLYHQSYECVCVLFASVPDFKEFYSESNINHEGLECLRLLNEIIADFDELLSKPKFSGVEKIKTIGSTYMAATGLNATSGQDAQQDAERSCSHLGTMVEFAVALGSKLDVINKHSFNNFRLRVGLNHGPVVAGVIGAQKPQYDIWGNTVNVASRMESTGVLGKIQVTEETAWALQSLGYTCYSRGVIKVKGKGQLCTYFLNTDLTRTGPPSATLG
The assay is described as follows: cAMP accumulation assay, isoproterenol-stimulated HEK-mAC4 cells. The following applies: for cAMP level (%); 100%= 10µM Isoproterenol stimulation: single experiments. The assay is classed as cell-based. (Cyclic AMP is a second messenger, typically raised through Gs and lowered through Gi signalling.)

Where “and” joins values, the source holds several entries; their conditions need not be identical. Equal entries are not always repeated.

For the compound `CCCCC/C=C\C/C=C\C/C=C\C/C=C\CCCC(=O)O` [Arachidonic acid, Arachidonic ((5Z,8Z,11Z,14Z)-eicosatetraenoic) acid], the “Effect on isoproterenol-stimulated cAMP formation in HEK-mAC4” value (10 µM isoproterenol, in words) is on record as “not attenuated”. Also, the “cAMP level (%); 100%= 10µM Isoproterenol stimulation” value (“cAMP level (%)” for short) is 136% (HEK-mAC4, 1e-5 µM); 111% (HEK-mAC4, 0.0001 µM); 114% (HEK-mAC4, 0.001 µM); 81% and 101% and 120% and 122% (HEK-mAC4, 0.01 µM); 124% (HEK-mAC4, 0.03 µM); 102% (HEK-mAC4, 0.06 µM). The “cAMP level (%)” value by setting is: (HEK-mAC4, 0.1 µM) 84% and 94% and 116% and 103%; (HEK-mAC4, 0.6 µM) 108%; (HEK-mAC4, 1 µM) 106% and 107% and 121% and 127% and 99% and 109% and 161% and 110%; (HEK-mAC4, 3 µM) 93% and 101% and 129% and 97% and 124% and 139%; (HEK-mAC4, 10 µM) 112% and 82% and 111% and 109% and 125% and 147%; (HEK-mAC4, 30 µM) 103% and 112% and 97% and 105% and 131%. For the same compound, the “cAMP level (%)” value is 95% and 112% and 121% and 114% and 128% (HEK-mAC4, 60 µM); 99% and 78% and 112% and 85% and 100% and 146% and 145% (HEK-mAC4, 100 µM).
